These results are taken from paper PMC11702208 (RSC Advances, 2025).

Each structure is given as a SMILES string.

This test concerns T-47D cells. The experiment in a line: Cell cycle analysis. In kind it is cell-based. The following applies: compound at IC50 concentration.

On to `CCN(CC)c1ccc(C=NNC(=O)CSc2nc3ccccc3c(=O)n2Cc2ccc(S(N)(=O)=O)cc2)c(O)c1` [Compound 5, 4-((2-((2-(2-(4-(Diethylamino)-2-hydroxybenzylidene)hydrazineyl)-2-oxoethyl)thio)-4-oxoquinazolin-3(4H)-yl)methyl)benzenesulfonamide], for which the “%G0-G1” value was determined as 46.31%, the “%G2-M” value was found to be 26.3% and the “%S” value was found to be 20.9%. For the same compound, where the note is “listed as Five”, the “%G2-M” value stood at 26.27% and the “%S” value was 27.42%.
